Columns and labels:
[1] = test system: p53/p21 system in the HCT116 cells; experiment: Western blot of p53/p21 activation; assay type: cell-based, human
Protocol: Further exploration of the cell death model was performed by a western blot analysis of protein activation in response to incubation with the tested compound (Figs 6, 7). […] The proapoptotic activation of the p53/p21 system was noticeable after the first 12 hours and then became stronger after 24 h. This effect was not observed in the case of the p53 null cells, which were unable to synthesize this protein.
The HCT116 cells were seeded in 3-cm Petri dishes (Nunc) at a density of 0.5·10^6 cells/well and incubated overnight. […] The cells were harvested by trypsinization and washed with cold PBS. Next, the cells were centrifuged and suspended in an RIPA buffer (Thermo-Fisher Scientific) containing Halt Protease Inhibitor Cocktail (Thermo-Fisher Scientific), Halt Phosphatase Inhibitor Cocktail (Thermo-Fisher Scientific) along with 0.5 M EDTA and lysed for 20 min on ice. Then, the lysates were sonicated, centrifuged at 10,000 rpm for 10 min at 4 °C and the supernatants were collected for further analysis. The protein concentration was determined using a Micro BCA™ Protein Assay Kit (Thermo-Fisher Scientific, Waltham, MA, USA c) according to the manufacturer’s instructions. Equal amounts of the proteins (20 μg) were electrophoresed on SDS-Page gels and transferred onto nitrocellulose membranes. The membranes were blocked in 5% non-fat milk prepared in PBS containing 0.1% Tween-20 (TPBS) for 1 h. After blocking, the membranes were incubated with specific primary antibodies: p21^Waf1/Cip1, p53, cytochrome c, caspase-8, caspase-9, AIF, PARP, GAPDH and β-Actin overnight at 4 °C, and then washed and incubated with horseradish peroxidase (HRP)-conjugated secondary antibodies for 1 h at room temperature. All of the antibodies were purchased from CellSignaling (Danvers, MA, USA) and were diluted 1:1000 in 5% milk in TPBS. Finally, the membranes were washed and incubated with a SuperSignal™ West Pico Chemiluminescent Substrate (Thermo-Fisher Scientific). The chemiluminescence signals were captured using a ChemiDoc™ XRS+ System (Bio-Rad Laboratories, Hercules, CA, USA). The experiments were performed at least three times. Densitometric analysis was performed using ImageJ 1.41 software (Wayne Rasband, National Institutes of Health, USA).

[2] = test system: caspase-8, caspase-9, AIF, cytochrome c, PARP in HCT116 cells; experiment: Western blot of proapoptotic proteins; assay type: cell-based, human; conditions: p53 null cells
Protocol: These are shown in Figure S5 supplementary information. […] This observation corresponds with the high selectivity of 5s towards the p53^−/− cell line. Moreover, no activation of caspase-8 or AIF was detected after incubation with the tested anilides. Similarly, the cytochrome c level was unaffected. Leakage of cytochrome c from the mitochondria is the first step of caspase-dependent apoptosis, which is often initiated by p53 activation. […] On the other hand, cleavage of PARP as well as a small but evident increase in the PARP level in response to the active compounds was observed. PolyADP-ribose polymerase is the nuclear factor that is responsible for detecting and repairing single strand breaks in DNA[79]. Its inhibition by the cleavage that is induced with caspase-3 is also a classic sign of apoptosis. However, the complex role of this protein is still vague especially in terms of any alternative activation and deactivation factors[80],[81]. Special attention is being paid to alternative ways of cell death for their potential usefulness in designing selectively targeted drugs[82]–[84].
The HCT116 cells were seeded in 3-cm Petri dishes (Nunc) at a density of 0.5·10^6 cells/well and incubated overnight. […] The protein concentration was determined using a Micro BCA™ Protein Assay Kit (Thermo-Fisher Scientific, Waltham, MA, USA c) according to the manufacturer’s instructions. […]

[3] = p53 null cells, after the first 12 hours

| SMILES | p21 protein amount [1, 3] | cleavage of caspases-8 and −9 [2] | p21 protein amount ([1]; either of the lines tested) |
| --- | --- | --- | --- |
| O=C(Nc1cc(C(F)(F)F)cc(C(F)(F)F)c1Cl)c1ccc2ccccc2c1O [5u] | small, insignificant increase | – | – |
| O=C(Nc1ccc(F)c(Cl)c1)c1ccc2ccccc2c1O [5s] | small, insignificant increase | some cleavage | – |
| O=C(Nc1cc(C(F)(F)F)cc(C(F)(F)F)c1)c1ccc2ccccc2c1O [7f] | – | – | did not increase p21 |

Reference: paper PMC6476888, “Design and synthesis of anticancer 1-hydroxynaphthalene-2-carboxanilides with a p53 independent mechanism of action” (Scientific Reports, 2019)
